The values below come from patent publication US4902811A, “Benzodioxane prostacyclin analogs” (Shionogi & Co., Ltd., priority 1987, dated 1990).

The first assay concerns hydrochloric acid-ethanol-induced gastric ulcer. The experiment in a line: Effect against hydrochloric acid ethanol-induced gastric ulcer (percent suppression of lesion index, oral). Type of assay: in vivo, male JCL-SD rats or CRJ-SD rats. Conditions: JCL-SD rats; oral; 30 μg/kg, 30 min before HCl-ethanol. The procedure: To male JCL-SD rats or CRJ-SD rats (weight: 220 g to 260 g) which have been fasted for 24 hours is administered orally 1 ml of 150 mM hydrochloric acid-60% ethanol. After an hour, the stomachs are excised. The ulcer size is determined by measuring the length of each lesion using a stereoscopic microscope and the sum of individual lesion length is expressed as lesion index. The vehicle (1% to 10% ethanol) and the test compounds are administered orally 30 minutes before the hydrochloric acid-ethanol administration. The percent suppression is calculated from the lesion indexes of treated versus non-treated animals.
As for `CCCCC(C)CC(O)C=CC1C(O)CC2Oc3c(OCC(=O)OC)cccc3OC21` (centres unmarked) [Ide-a], the “Percent Suppression (P.S.)” value is 37%.
Turning to `CCCCC(C)CC(O)C=CC1C(O)CC2Oc3c(OCC(=O)OC)cccc3OC21` (centres unmarked) [Ibe-a], the “Percent Suppression (P.S.)” value stood at 96%.
Turning to `CCCCC(C)CC(O)CCC1C(O)CC2Oc3c(OCC(=O)OC)cccc3OC21` (centres unmarked) [Ife-a], the “Percent Suppression (P.S.)” value came out at 91%.
For the compound `CCCCC(C)CC(O)C=CC1C(O)CC2Oc3c(OCC(=O)OC)cccc3OC21` (centres unmarked) [Idd-a], the “Percent Suppression (P.S.)” value is on record as 32%.
Same read-out and setting: then `CCCCC(C)CC(O)C=CC1C(O)CC2Oc3c(OCC(=O)OC)cccc3OC21` (centres unmarked) [Ibd-a], with 91%; and `CCCCC(C)CC(O)CCC1C(O)CC2Oc3c(OCC(=O)OC)cccc3OC21` (centres unmarked) [Ifd-a], with 66%; and `CC(C)=CCCC(C)CC(O)C=CC1C(O)CC2Oc3c(OCC(=O)O)cccc3OC21` (centres unmarked) [Ibl-b], with 83%.
The same measure, in the same setting: then `CCCCC(C)CC(O)C=CC1C(O)CC2Oc3c(OCC(=O)O)cccc3OC21` (centres unmarked) [Ibd-b], with 74%.
With `COC(=O)COc1cccc2c1OC1CC(O)C(C=CC(O)CC(C)CCC=C(C)C)C1O2` (centres unmarked) [Ibl-a], the “Percent Suppression (P.S.)” value turned out to be 64%.

The same assay, now with this note: Rattus norvegicus, po, 1 h, CRJ-SD rats; oral; 30 μg/kg, 30 min before HCl-ethanol; read-out: Percent Suppression (P.S.).
For `CCCCC(C)CC(O)C=CC1C(O)CC2Oc3c(OCC(=O)OC)cccc3OC21` (centres unmarked) [Ibe-a], the inhibition in vivo at 0.03 mg/kg worked out at 99%.

The assay is the same for the next values; noted with them: Rattus norvegicus, po, 1 h, JCL-SD rats; oral; 30 μg/kg, 30 min before HCl-ethanol; read-out: Percent Suppression (P.S.).
Consider `COC(=O)COc1cccc2c1OC1CC(O)C(C=CC(O)CC(C)COc3ccccc3)C1O2` (centres unmarked) [Ibo-a], for which the inhibition in vivo at 0.03 mg/kg came to 63%.
Same read-out and setting: then `CCCCC(C)CC(O)C=CC1C(O)CC2Oc3c(OCC(=O)O)cccc3OC21` (centres unmarked) [Ibe-b], with 80%; and `COC(=O)COc1cccc2c1O[C@@H]1C[C@H](O)[C@@H](CC[C@H](O)CC3CCCCC3)[C@@H]1O2` (relative stereo) [Ifj-a], with 25%; and `O=C(O)COc1cccc2c1O[C@@H]1C[C@H](O)[C@@H](CC[C@H](O)C3CCCCC3)[C@@H]1O2` (relative stereo) [Ifb-b], with 75%.
On to `CCC#CCC[C@@H](O)/C=C/[C@H]1[C@@H]2Oc3cccc(OCC(=O)O)c3O[C@@H]2C[C@@H]1O` (relative stereo) [Ibc-b], for which the inhibition in vivo at 0.03 mg/kg amounted to 14%.
Still for that read-out and setting: the value for `CCC#CCC[C@@H](O)/C=C/[C@H]1[C@@H]2Oc3cccc(OCC(=O)OC)c3O[C@@H]2C[C@@H]1O` (relative stereo) [Ibc-a] was 29%.
With `O=C(O)COc1cccc2c1O[C@@H]1C[C@H](O)[C@@H](/C=C/[C@H](O)C3CCCCC3)[C@@H]1O2` (relative stereo) [Ibb-b], the inhibition in vivo at 0.03 mg/kg stood at 25%.
Regarding `COC(=O)COc1cccc2c1OC1CC(O)C(C=CC(O)CC(C)CCC=C(C)C)C1O2` (centres unmarked) [Ibk-a], the inhibition in vivo at 0.03 mg/kg is 81%.
As to `O=C(O)COc1cccc2c1O[C@@H]1C[C@H](O)[C@@H](/C=C/[C@@H](O)C3CCCCC3)[C@@H]1O2` (relative stereo) [Idb-b], the inhibition in vivo at 0.03 mg/kg stood at 25%.
For the compound `COC(=O)COc1cccc2c1O[C@@H]1C[C@H](O)[C@@H](/C=C/[C@H](O)C3CCCC3)[C@@H]1O2` (relative stereo) [Ibi-a], the inhibition in vivo at 0.03 mg/kg was 41%.
`COC(=O)COc1cccc2c1O[C@@H]1C[C@H](O)[C@@H](/C=C/[C@H](O)C3CCCCC3)[C@@H]1O2` (relative stereo) [Ibb-a]: the inhibition in vivo at 0.03 mg/kg worked out at 63%.
The same measure, in the same setting: the value for `CCCCC[C@H](O)/C=C/[C@H]1[C@@H]2Oc3cccc(OCC(=O)OC)c3O[C@@H]2C[C@@H]1O` (relative stereo) [Ida-a, methyl [(1R*,2S*,3aR*,9aS*)-2-hydroxy-1-[(3S*,1E)-3-hydroxy-1-octenyl]-2,3,3a,9a-tetrahydro-1H-cyclopenta[b][1,4]benzodioxin-5-yl]oxyacetate] was 37%.
On to `COC(=O)COc1cccc2c1O[C@@H]1C[C@H](O)[C@@H](CC[C@H](O)C3CCCCC3)[C@@H]1O2` (relative stereo) [Ifb-a], for which the inhibition in vivo at 0.03 mg/kg was found to be 78%.
In the case of `CCCCC[C@@H](O)CC[C@H]1[C@@H]2Oc3cccc(OCC(=O)OC)c3O[C@@H]2C[C@@H]1O` (relative stereo) [Ifa-a, methyl[(1R*,2S*,3aR*,9aS*)-2-hydroxy-1-[(R*)-3-hydroxyoctyl]-2,3,3a,9a-tertahydro-1H-cyclopenta[b][1,4]benzodioxin-5-oxyacetate], the inhibition in vivo at 0.03 mg/kg turned out to be 27%.
For the compound `CCCCC[C@@H](O)/C=C/[C@H]1[C@@H]2Oc3cccc(OCC(=O)OC)c3O[C@@H]2C[C@@H]1O` (relative stereo) [Iba-a], the inhibition in vivo at 0.03 mg/kg was 36%.
Regarding `CCCCC(C)(C)[C@@H](O)/C=C/[C@H]1[C@@H]2Oc3cccc(OCC(=O)OC)c3O[C@@H]2C[C@@H]1O` (relative stereo) [Ibg-a], the inhibition in vivo at 0.03 mg/kg came to 15%.
In the case of `COC(=O)COc1cccc2c1OC1CC(O)C(C=CC(O)CC(C)Oc3ccccc3)C1O2` (centres unmarked) [Ibm-a], the inhibition in vivo at 0.03 mg/kg came out at 58%.
The same measure, in the same setting: the value for `CC(C)=CCCC(C)CC(O)C=CC1C(O)CC2Oc3c(OCC(=O)O)cccc3OC21` (centres unmarked) [Ibk-b] was 70%.
On to `COC(=O)COc1cccc2c1O[C@@H]1C[C@H](O)[C@@H](CC[C@H](O)C3CCCC3)[C@@H]1O2` (relative stereo) [Ifi-a], for which the inhibition in vivo at 0.03 mg/kg was found to be 52%.

Staying with this assay, now noted: Rattus norvegicus, po, 1 h, JCL-SD rats; oral; 100 μg/kg, 30 min before HCl-ethanol; read-out: Percent Suppression (P.S.).
Turning to `CCCCC[C@@H](O)/C=C/[C@H]1[C@@H]2Oc3cccc(OCC(=O)O)c3O[C@@H]2C[C@@H]1O` (relative stereo) [Iba-b, [(1R*,2S*,3aR*,9aS*)-2-hydroxy-1-[(3R*,1E)-3-hydroxy-1-octenyl]-2,3,3a,9a-tetrahydro-1H-cyclopenta[b][1,4]benzodioxin-5-yl]oxyacetic acid], the inhibition in vivo at 0.1 mg/kg worked out at 30%.
On to `CCCCC[C@H](O)/C=C/[C@H]1[C@@H]2Oc3cccc(OCC(=O)O)c3O[C@@H]2C[C@@H]1O` (relative stereo) [Ida-b, [(1R*,2S*,3aR*,9aS*)-2-hydroxy-1-[(3S*,1E)-3-hydroxy-1-octenyl]-2,3,3a,9a-tetrahydro-1H-cyclopenta[b][1,4]benzodioxin-5-yl]oxyacetic acid], for which the inhibition in vivo at 0.1 mg/kg amounted to 19%.

Still in this assay, the particulars now being: reference compound; 300 μg/Kg; strain not stated.
Consider `CCCCC[C@H](O)/C=C/[C@@H]1[C@H]2CC(SCCCC(=O)OC)=N[C@H]2C[C@H]1O` [Hoe892, reference compound], for which the “Percent Suppression (P.S.)” value is given as 28%.
